Experimental data taken from US20020026053A1, “Novel 3-(substituted) -2- indolinones compounds and use thereof as inhibitors of protein kinase activity” (priority 1997, published 2002).

Tests used:
[1] = test system: FLK-1 receptor; assay: FLK-1 Assay (cellular/catalytic ELISA, VEGF-stimulated phosphotyrosine); assay type: cell-based; parameters: concentration or dose not given beside the values; details: protocol P.110
Summary of the method: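 NIH3T3 C7#3 cells engineered to express Flk-1 were serum-starved overnight (0.1% FBS), then exposed to compound for 2 h at 37 °C (final dilution 1:200, 0.5% DMSO) before VEGF stimulation. Lysates captured on anti-FLK-1 antiserum plates; phosphotyrosine detected by UB40 antibody/POD-ABTS ELISA versus untreated controls.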

[2] = test system: PDGF-R; assay: PDGF-R Assay (cellular ELISA, U1242 cells); assay type: cell-based; parameters: concentration or dose not given beside the values; details: protocol P.119
Summary of the method: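 U1242 cells seeded in 0.5% serum, serum-starved, then exposed to compound for 2 hr at 37°C before 5–10 min ligand stimulation and lysis in HNTG. Lysate captured on receptor-antibody-coated plates; phosphotyrosine detected with polyclonal anti-pTyr, goat anti-rabbit IgG and ABTS/H2O2, A410 (ref 630 nm), versus untreated cells.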

## CNS(=O)(=O)c1ccc2c(c1)C(=Cc1ccc(OC)c(F)c1)C(=O)N2 [10737/D06]
[1]
  Flk Kinase % Inhibition (P.110): 13.0%
[2]
  PDGF Kinase % Inhibition (P.119): −10.2%

## Cc1ccc(C=C2C(=O)Nc3ccc(I)cc32)c(C)c1 [10737/B03]
[1]
  Flk Kinase % Inhibition (P.110): 7.0%
[2]
  PDGF Kinase % Inhibition (P.119): 29.7%

## Cc1c(Br)cc(Br)c2c1C(=Cc1ccccc1Cl)C(=O)N2 [10736/H11]
[1]
  Flk Kinase % Inhibition (P.110): 17.6%
[2]
  PDGF Kinase % Inhibition (P.119): −12.7%

## CCOc1ccc(C=C2C(=O)Nc3ccc(Br)c(C)c32)cc1 [10737/C02]
[1]
  Flk Kinase % Inhibition (P.110): −2.9%
[2]
  PDGF Kinase % Inhibition (P.119): −2.2%

## O=C1Nc2c(Br)cc(Br)cc2C1=Cc1cccc(F)c1F [10737/A05]
[1]
  Flk Kinase % Inhibition (P.110): −2.0%
[2]
  PDGF Kinase % Inhibition (P.119): 21.7%

## COc1ccc(C=C2C(=O)Nc3ccc(S(=O)(=O)N4CCOCC4)cc32)cc1F [10737/F06]
[1]
  Flk Kinase % Inhibition (P.110): 12.3%
[2]
  PDGF Kinase % Inhibition (P.119): 11.3%

## Cc1ccc(C=C2C(=O)Nc3ccc(Br)c(C)c32)c(C)c1 [10737/C03]
[1]
  Flk Kinase % Inhibition (P.110): 10.1%
[2]
  PDGF Kinase % Inhibition (P.119): 7.0%

## O=C1Nc2ccc(S(=O)(=O)N3CCOCC3)cc2C1=Cc1cccc(F)c1F [10737/F05]
[1]
  Flk Kinase % Inhibition (P.110): 18.4%
[2]
  PDGF Kinase % Inhibition (P.119): 1.0%

## CCOc1ccc(C=C2C(=O)Nc3c(Br)cc(Br)cc32)cc1 [10737/A02]
[1]
  Flk Kinase % Inhibition (P.110): −5.5%
[2]
  PDGF Kinase % Inhibition (P.119): 6.6%

## O=C1Nc2ccc(S(=O)(=O)N3CCOCC3)cc2C1=Cc1cccc(Oc2cccc(C(F)(F)F)c2)c1 [10737/F11]
[1]
  Flk Kinase % Inhibition (P.110): 31.6%
[2]
  PDGF Kinase % Inhibition (P.119): 16.5%

## O=C1Nc2c(Br)cc(Br)cc2C1=Cc1ccc2ccccc2c1 [10737/A08]
[1]
  Flk Kinase % Inhibition (P.110): 4.9%
[2]
  PDGF Kinase % Inhibition (P.119): 1.0%

## Cc1c(Br)ccc2c1C(=Cc1cccc(F)c1F)C(=O)N2 [10737/C05]
[1]
  Flk Kinase % Inhibition (P.110): −3.3%
[2]
  PDGF Kinase % Inhibition (P.119): 12.5%

## CCOc1ccc(C=C2C(=O)Nc3ccc(S(=O)(=O)NC)cc32)cc1 [10737/D02]
[1]
  Flk Kinase % Inhibition (P.110): 10.6%
[2]
  PDGF Kinase % Inhibition (P.119): −4.2%

## COc1ccc(C=C2C(=O)Nc3ccc(CCCl)cc32)cc1F [10737/G06]
[1]
  Flk Kinase % Inhibition (P.110): 12.8%
[2]
  PDGF Kinase % Inhibition (P.119): −10.2%

## CCOc1ccc(C=C2C(=O)Nc3ccc(I)cc32)cc1 [10737/B02]
[1]
  Flk Kinase % Inhibition (P.110): −3.0%
[2]
  PDGF Kinase % Inhibition (P.119): −28.9%

## O=C1Nc2ccc(I)cc2C1=Cc1cccc(Oc2cccc(C(F)(F)F)c2)c1 [10737/B11]
[1]
  Flk Kinase % Inhibition (P.110): 12.8%
[2]
  PDGF Kinase % Inhibition (P.119): −10.2%

## Cc1c(Br)cc(Br)c2c1C(=Cc1cc(F)ccc1F)C(=O)N2 [10737/H04]
[1]
  Flk Kinase % Inhibition (P.110): 11.6%
[2]
  PDGF Kinase % Inhibition (P.119): −21.3%

## O=C1Nc2ccc(CCCl)cc2C1=Cc1ccc2ccccc2c1 [10737/G08]
[1]
  Flk Kinase % Inhibition (P.110): 16.4%
[2]
  PDGF Kinase % Inhibition (P.119): 13.7%

## O=C1Nc2ccc(CCCl)cc2C1=Cc1ccc(Oc2ccccc2)cc1 [10737/G09]
[1]
  Flk Kinase % Inhibition (P.110): 15.2%
[2]
  PDGF Kinase % Inhibition (P.119): 8.2%

## Cc1ccc(C=C2C(=O)Nc3ccc(S(=O)(=O)N4CCOCC4)cc32)c(C)c1 [10737/F03]
[1]
  Flk Kinase % Inhibition (P.110): 16.3%
[2]
  PDGF Kinase % Inhibition (P.119): 7.8%

## Cc1c(Br)ccc2c1C(=Cc1cccc(Oc3cccc(C(F)(F)F)c3)c1)C(=O)N2 [10737/C11]
[1]
  Flk Kinase % Inhibition (P.110): 13.3%
[2]
  PDGF Kinase % Inhibition (P.119): 32.5%

## O=C1Nc2ccc(S(=O)(=O)Nc3ccc(C(F)(F)F)cc3)cc2C1=Cc1cccc(Oc2cccc(C(F)(F)F)c2)c1 [10737/E11]
[1]
  Flk Kinase % Inhibition (P.110): 18.3%
[2]
  PDGF Kinase % Inhibition (P.119): 38.0%

## COc1ccc(C=C2C(=O)Nc3c(Br)cc(Br)c(C)c32)cc1F [10737/H06]
[1]
  Flk Kinase % Inhibition (P.110): 5.8%
[2]
  PDGF Kinase % Inhibition (P.119): −1.8%

## CC(C)(C)c1ccc(Oc2cccc(C=C3C(=O)Nc4c(Br)cc(Br)cc43)c2)cc1 [10737/A10]
[1]
  Flk Kinase % Inhibition (P.110): 6.0%
[2]
  PDGF Kinase % Inhibition (P.119): −3.8%

## Cc1c(Br)ccc2c1C(=Cc1cccc(Oc3ccc(C(C)(C)C)cc3)c1)C(=O)N2 [10737/C10]
[1]
  Flk Kinase % Inhibition (P.110): 16.0%
[2]
  PDGF Kinase % Inhibition (P.119): 6.6%

## CC(C)(C)c1ccc(Oc2cccc(C=C3C(=O)Nc4ccc(CCCl)cc43)c2)cc1 [10737/G10]
[1]
  Flk Kinase % Inhibition (P.110): 13.3%
[2]
  PDGF Kinase % Inhibition (P.119): −0.2%

## O=C1Nc2ccc(S(=O)(=O)Nc3ccc(C(F)(F)F)cc3)cc2C1=Cc1cccc(F)c1F [10737/E05]
[1]
  Flk Kinase % Inhibition (P.110): 14.9%
[2]
  PDGF Kinase % Inhibition (P.119): 33.3%

## CNS(=O)(=O)c1ccc2c(c1)C(=Cc1cccc(F)c1F)C(=O)N2 [10737/D05]
[1]
  Flk Kinase % Inhibition (P.110): 8.9%
[2]
  PDGF Kinase % Inhibition (P.119): 2.2%

## CC(C)(C)c1ccc(Oc2cccc(C=C3C(=O)Nc4ccc(I)cc43)c2)cc1 [10737/B10]
[1]
  Flk Kinase % Inhibition (P.110): 17.1%
[2]
  PDGF Kinase % Inhibition (P.119): −10.2%

## O=C1Nc2ccc(S(=O)(=O)N3CCOCC3)cc2C1=Cc1cc(F)ccc1F [10737/F04]
[1]
  Flk Kinase % Inhibition (P.110): 12.2%
[2]
  PDGF Kinase % Inhibition (P.119): 3.8%

## Cc1ccc(C=C2C(=O)Nc3c(Br)cc(Br)cc32)c(C)c1 [10737/A03]
[1]
  Flk Kinase % Inhibition (P.110): −1.2%
[2]
  PDGF Kinase % Inhibition (P.119): 38.8%

## O=C1Nc2ccc(CCCl)cc2C1=Cc1cc(F)ccc1F [10737/G04]
[1]
  Flk Kinase % Inhibition (P.110): 12.1%
[2]
  PDGF Kinase % Inhibition (P.119): 12.1%

## CC(C)(C)c1ccc(Oc2cccc(C=C3C(=O)Nc4ccc(S(=O)(=O)N5CCOCC5)cc43)c2)cc1 [10737/F10]
[1]
  Flk Kinase % Inhibition (P.110): 26.1%
[2]
  PDGF Kinase % Inhibition (P.119): 11.0%

## Cc1ccc(C)c(C=C2C(=O)Nc3ccc(S(=O)(=O)Nc4ccc(C(F)(F)F)cc4)cc32)c1 [10737/E07]
[1]
  Flk Kinase % Inhibition (P.110): 20.1%
[2]
  PDGF Kinase % Inhibition (P.119): 28.1%

## CNS(=O)(=O)c1ccc2c(c1)C(=Cc1ccc3ccccc3c1)C(=O)N2 [10737/D08]
[1]
  Flk Kinase % Inhibition (P.110): 15.3%
[2]
  PDGF Kinase % Inhibition (P.119): 3.0%

## CCOc1ccc(C=C2C(=O)Nc3ccc(CCCl)cc32)cc1 [10737/G02]
[1]
  Flk Kinase % Inhibition (P.110): 8.7%
[2]
  PDGF Kinase % Inhibition (P.119): −5.8%

## CCOc1ccc(C=C2C(=O)Nc3ccc(S(=O)(=O)N4CCOCC4)cc32)cc1 [10737/F02]
[1]
  Flk Kinase % Inhibition (P.110): 15.1%
[2]
  PDGF Kinase % Inhibition (P.119): 9.0%

## O=C1Nc2ccc(S(=O)(=O)Nc3ccc(C(F)(F)F)cc3)cc2C1=Cc1ccc2ccccc2c1 [10737/E08]
[1]
  Flk Kinase % Inhibition (P.110): 21.3%
[2]
  PDGF Kinase % Inhibition (P.119): 35.6%

## O=C1Nc2ccc(S(=O)(=O)Nc3ccc(C(F)(F)F)cc3)cc2C1=Cc1cc(F)ccc1F [10737/E04]
[1]
  Flk Kinase % Inhibition (P.110): 16.1%
[2]
  PDGF Kinase % Inhibition (P.119): 29.7%

## O=C1Nc2ccc(CCCl)cc2C1=Cc1cccc(F)c1F [10737/G05]
[1]
  Flk Kinase % Inhibition (P.110): 16.4%
[2]
  PDGF Kinase % Inhibition (P.119): 16.1%

## O=C1Nc2ccc(I)cc2C1=Cc1ccc2ccccc2c1 [10737/B08]
[1]
  Flk Kinase % Inhibition (P.110): 12.2%
[2]
  PDGF Kinase % Inhibition (P.119): −0.6%

## O=C1Nc2ccc(S(=O)(=O)N3CCOCC3)cc2C1=Cc1ccc2ccccc2c1 [10737/F08]
[1]
  Flk Kinase % Inhibition (P.110): 20.7%
[2]
  PDGF Kinase % Inhibition (P.119): 9.8%

## Cc1c(Br)cc(Br)c2c1C(=Cc1ccccc1F)C(=O)N2 [10736/H08]
[1]
  Flk Kinase % Inhibition (P.110): 15.8%
[2]
  PDGF Kinase % Inhibition (P.119): −17.9%

## CC(C)(C)c1ccc(Oc2cccc(C=C3C(=O)Nc4ccc(S(=O)(=O)Nc5ccc(C(F)(F)F)cc5)cc43)c2)cc1 [10737/E10]
[1]
  Flk Kinase % Inhibition (P.110): 18.9%
[2]
  PDGF Kinase % Inhibition (P.119): 30.9%

## CNS(=O)(=O)c1ccc2c(c1)C(=Cc1cc(F)ccc1F)C(=O)N2 [10737/D04]
[1]
  Flk Kinase % Inhibition (P.110): 12.0%
[2]
  PDGF Kinase % Inhibition (P.119): 9.4%

## CNS(=O)(=O)c1ccc2c(c1)C(=Cc1cccc(Oc3ccc(C(C)(C)C)cc3)c1)C(=O)N2 [10737/D10]
[1]
  Flk Kinase % Inhibition (P.110): 23.2%
[2]
  PDGF Kinase % Inhibition (P.119): 7.0%

## Cc1ccc(C)c(C=C2C(=O)Nc3ccc(CCCl)cc32)c1 [10737/G07]
[1]
  Flk Kinase % Inhibition (P.110): 20.3%
[2]
  PDGF Kinase % Inhibition (P.119): 24.1%

## Cc1c(Br)ccc2c1C(=Cc1ccc3ccccc3c1)C(=O)N2 [10737/C08]
[1]
  Flk Kinase % Inhibition (P.110): 8.9%
[2]
  PDGF Kinase % Inhibition (P.119): 14.5%

## O=C1Nc2ccc(I)cc2C1=Cc1cccc(F)c1F [10737/B05]
[1]
  Flk Kinase % Inhibition (P.110): −4.6%
[2]
  PDGF Kinase % Inhibition (P.119): 19.7%
